For orientation: EC50 means the midpoint of the concentration-response curve. High values mean lower potency in that assay, low ones higher potency in that assay. As usually defined, the IC50 is the concentration at which inhibition is half-maximal.

The test system of one test is A549 cells. As to the kind of experiment: Proliferation Assay (A549 cell viability, Cell Titer Fluor). It is filed as cell-based. The settings on record: Homo sapiens, 72 hours. The method in brief: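 Seed A549 at 1000 cells/well and culture 24 h. Add compound (final DMSO 0.5%) and incubate 72 h at 37 °C. Add Cell Titer Fluor, mix 15 min, incubate 30 min, read fluorescence and fit EC50 by four-parameter logistic.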

The target in test [1] is T1, purified recombinant human GAC (GLS1) (Homo sapiens, UniProt O94925).
T1 sequence (O94925 55-598 isoform O94925-3 limits assumed): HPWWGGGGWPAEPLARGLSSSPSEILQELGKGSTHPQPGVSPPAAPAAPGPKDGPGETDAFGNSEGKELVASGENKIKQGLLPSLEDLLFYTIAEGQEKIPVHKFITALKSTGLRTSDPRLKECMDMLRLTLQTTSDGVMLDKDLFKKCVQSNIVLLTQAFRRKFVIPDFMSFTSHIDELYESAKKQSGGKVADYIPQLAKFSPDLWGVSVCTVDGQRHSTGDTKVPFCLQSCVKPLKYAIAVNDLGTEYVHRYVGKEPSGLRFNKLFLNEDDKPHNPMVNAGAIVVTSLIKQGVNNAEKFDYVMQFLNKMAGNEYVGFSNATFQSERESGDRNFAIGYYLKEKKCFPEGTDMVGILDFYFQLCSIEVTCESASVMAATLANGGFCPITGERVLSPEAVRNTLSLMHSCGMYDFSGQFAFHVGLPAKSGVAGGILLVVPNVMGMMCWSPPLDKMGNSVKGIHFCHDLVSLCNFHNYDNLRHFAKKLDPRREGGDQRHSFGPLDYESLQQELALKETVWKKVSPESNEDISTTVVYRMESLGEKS
As to the kind of experiment: GLS1 Enzymatic Activity Assay (dual-coupled enzymatic assay). The class given is biochemical. The method in brief:
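In this coupled fluorometric format, phosphate-activated GAC (2 nM, 50 mM phosphate) is pre-exposed to compound for 10 min before 1 mM glutamine addition. Product is tracked as resorufin (530/590 nm) over time or at 20 min, and potency is derived by logistic fitting.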

Take `O=C(NCc1ccccn1)c1cn(CCCCc2cc3c(-c4ccc(F)cc4F)c(C4CC4)[nH]c3nn2)nn1` [Example 151]: the EC50 in the test on A549 cells is 100 to 500 nM. The IC50 in test [1] was less than 100 nM.
The matching figures for `CC(C)(C)c1cc2cc(CCCCn3ccc(NC(=O)Cc4ccccc4)cc3=O)nnc2[nH]1` [Example 30, N-[1-(4-{6-tert-butyl-7H-pynolo[2,3-c]pyridazin-3-yl}butyl)-2-oxo-1,2-dihydropyridin-4-yl]-2-phenylacetamide]: 500 to 5000 nM and 100 to 500 nM.
For `Cc1c(C2CC2)[nH]c2nnc(CCCCn3cc(C(=O)NCc4ccccn4)nn3)cc12` [Example 109, 1-(4-(6-cyclopropyl-5-methyl-7H-pyrrolo[2,3-c]pyridazin-3-yl)butyl)-N-(pyridin-2-ylmethyl)-1H-1,2,3-triazole-4-carboxamide] the same measures were 500 to 5000 nM and 100 to 500 nM.
As for `O=C(NCc1ccccn1)c1cn(CC(F)CCc2cc3cc(-c4ccccc4F)[nH]c3nn2)nn1` (stereo not drawn) [Example 242, 1-{2-fluoro-4-[6-(2-fluorophenyl)-7H-pyrrolo[2,3-c]pyridazin-3-yl]butyl}-N-(pyridin-2-ylmethyl)-1H-1,2,3-triazole-4-carboxamide], the EC50 with A549 cells fell in the range of 100 to 500 nM. Moreover, the IC50 in test [1] was less than 100 nM.
The matching figures for `CNC(=O)c1nnc(CCCCc2cc3cc(Cc4ccccc4)[nH]c3nn2)s1` [Example 70, 5-(4-{6-benzyl-7H-pyrrolo[2,3-c]pyridazin-3-yl}butyl)-N-methyl-1,3,4-thiadiazole-2-carboxamide]: 100 to 500 nM and 100 to 500 nM.
The matching figures for `O=C(Cc1ccccc1)Nc1ccn(CCCCc2cc3cc(Cc4ccccc4)[nH]c3nn2)c(=O)c1` [Example 9, N-(1-(4-(6-Benzyl-7H-pyrrolo[2,3-c]pyridazin-3-yl)butyl)-2-oxo-1,2-dihydropyridin-4-yl)-2-phenylacetamide]: 500 to 5000 nM and less than 100 nM.
In the test with A549 cells, `CC(=O)Nc1cccc(-c2c(C3CC3)[nH]c3nnc(CCCCn4cc(C(=O)NCc5ccc(C(C)(C)O)nc5)nn4)cc23)c1` [Example 152, 1-{4-[6-cyclopropyl-5-(3-acetamidophenyl)-7H-pyrrolo[2,3-c]pyridazin-3-yl]butyl}-N-{[6-(2-hydroxypropan-2-yl)pyridin-3-yl]methyl}-1H-1,2,3-triazole-4-carboxamide] returned an EC50 of 500 to 5000 nM. For the same compound, the IC50 in test [1] is less than 100 nM.
With `Cc1ccc(CNC(=O)c2cn(CCCCc3cc4cc(C5CCN(C(=O)OC(C)(C)C)CC5)[nH]c4nn3)nn2)cn1` [Example 95, ten-butyl 4-{3-[4-(4-{[(6-methylpyridin-3-yl)methyl]carbamoyl}-1H-1,2,3-triazol-1-yl)butyl]-7H-pyrrolo[2,3-c]pyridazin-6-yl}piperidine-1-carboxylate], the EC50 in the test with A549 cells lay in the range of 100 to 500 nM. Besides, the IC50 in test [1] is less than 100 nM.
Turning to `CC(C)(C)OC(=O)N1CC(c2cc3cc(CCCCn4cc(C(=O)NCc5cc(OC(F)(F)F)ccc5F)nn4)nnc3[nH]2)C1` [Example 111, tert-butyl 3-(3-(4-(4-((2-fluoro-5-(trifluoromethoxy)benzyl)carbamoyl)-1H-1,2,3-triazol-1-yl)butyl)-7H-pyrrolo[2,3-c]pyridazin-6-yl)azetidine-1-carboxylate], the concentration giving a half-maximal response (EC50) with A549 cells is less than 100 nM. Besides, in test [1], the IC50 was less than 100 nM.
Consider `Cn1ccnc1CNC(=O)c1cn(CCCCc2cc3cc(C4CC4)[nH]c3nn2)nn1` [Example 54, 1-(4-{6-cyclopropyl-7H-pyrrolo[2,3-c]pyridazin-3-yl}butyl)-N-[(1-methyl-1H-imidazol-2-yl)methyl]-1H-1,2,3-triazole-4-carboxamide], for which the EC50 with A549 cells is more than 5000 nM. For the same compound, the concentration for half-maximal inhibition (IC50) in test [1] fell in the range of 500 to 5000 nM.
For `Cc1ccc(CNC(=O)c2cn(CC(F)CCc3cc4cc(C5CC5)[nH]c4nn3)nn2)cn1` (stereo not drawn) [Example 231, 1-(4-{6-cyclopropyl-7H-pyrrolo[2,3-c]pyridazin-3-yl)-2-fluorobutyl)-N-[(6-methylpyridin-3-yl)methyl]-1H-1,2,3-triazole-4-carboxamide], the EC50 in the test on A549 cells was 100 to 500 nM. In test [1], the IC50 was less than 100 nM.
Regarding `O=C(NCc1cccc(OC(F)(F)F)c1)c1cn(CCCCc2cc3c(C4=CCOCC4)c(C4CC4)[nH]c3nn2)nn1` [Example 195, 1-{4-[6-cyclopropyl-5-(3,6-dihydro-2H-pyran-4-yl)-7H-pyrrolo[2,3-c]pyridazin-3-yl]butyl}-N-{[3-(trifluoromethoxy)phenyl]methyl}-1H-1,2,3-triazole-4-carboxamide], in the test on A549 cells, the EC50 was less than 100 nM. Moreover, the IC50 in test [1] is less than 100 nM.
Take `CC(C)(O)C(=O)N1CC(c2cc3cc(CCCCn4cc(C(=O)NCc5cc(OC(F)(F)F)ccc5F)nn4)nnc3[nH]2)C1` [Example 133, N-{[2-fluoro-5-(trifluoromethoxy)phenyl]methyl}-1-(4-{6-[1-(2-hydroxy-2-methylpropanoyl)azetidin-3-yl]-7H-pyrrolo[2,3-c]pyridazin-3-yl}butyl)-1H-1,2,3-triazole-4-carboxamide]: in the test with A549 cells, the EC50 was 100 to 500 nM. In test [1], the IC50 is less than 100 nM.
On to `Cc1ccc(CNC(=O)c2cn(CCCCc3cc4c(Br)c(C5CC5)[nH]c4nn3)nn2)cn1` [Example 18, 1-(4-(5-Bromo-6-cyclopropyl-7H-pyrrolo[2,3-c]pyridazin-3-yl)butyl)-N-((6-methylpyridin-3-yl)methyl)-1H-1,2,3-triazole-4-carboxamide 2,2,2-trifluoroacetate], for which the EC50 in the test on A549 cells was 100 to 500 nM. Moreover, the IC50 in test [1] is less than 100 nM.
For `O=C(NCc1cc(C(F)(F)F)ccn1)c1cn(CCCCc2cc3c(C4CC4)c(C4CCCC4)[nH]c3nn2)nn1` [Example 216, 1-(4-{6-cyclopentyl-5-cyclopropyl-7H-pyrrolo[2,3-c]pyridazin-3-yl}butyl)-N-{[4-(trifluoromethyl)pyridin-2-yl]methyl}-1H-1,2,3-triazole-4-carboxamide] the same measures were 100 to 500 nM and less than 100 nM.
For `O=C(NCc1ccccn1)c1cn(CCCCc2cc3c(Cc4ccccn4)c(C4CC4)[nH]c3nn2)nn1` [Example 126, 1-{4-[6-cyclopropyl-5-(pyridin-2-ylmethyl)-7H-pyrrolo[2,3-c]pyridazin-3-yl]butyl}-N-(pyridin-2-ylmethyl)-1H-1,2,3-triazole-4-carboxamide] the same measures were 500 to 5000 nM and 100 to 500 nM.
For `O=C(NCc1cc(OC(F)(F)F)ccc1F)c1cn(CCCCc2cc3cc(C4CN(C(=O)Cc5ccccc5)C4)[nH]c3nn2)nn1` [Example 238, N-{[2-fluoro-5-(trifluoromethoxy)phenyl]methyl)-1-(4-{6-[1-(2-phenylacetyl)azetidin-3-yl]-7H-pyrrolo[2,3-c]pyridazin-3-yl}butyl)-1H-1,2,3-triazole-4-carboxamide] the same measures were less than 100 nM and less than 100 nM.
In the case of `O=C(NCC1COC1)c1nnc(CCCCc2cc3cc(Cc4ccccc4)[nH]c3nn2)s1` [Example 69, 5-(4-{6-benzyl-7H-pyrrolo[2,3-c]pyridazin-3-yl}butyl)-N-(oxetan-3-ylmethyl)-1,3,4-thiadiazole-2-carboxamide], the concentration for a half-maximal effect (EC50) with A549 cells lay within 500 to 5000 nM. Besides, the IC50 in test [1] was 100 to 500 nM.

Values taken from patent US20160002248A1, “GLS1 INHIBITORS FOR TREATING DISEASE” (Board of Regents, The University of Texas System, priority 2014, published 2016).
